Experimental data reported in patent US20230310388A1, “Methods and Compositions for Treating Fungal Infections” (Neoculi Pty Ltd, priority 2020, published 2023).
Where “and” joins values, the source holds several entries; their conditions need not be identical. Equal values may be shown once.

Legend:
Type in all cases: cell-based
[1] = system: Candida albicans; experiment: CLSI broth microdilution MIC (Example 4)
Method: (§1) Antifungal minimum inhibitory concentration (MIC) testing was undertaken as recommended by the CLSI. Briefly, antifungal susceptibility tests were performed for amphotericin B, robenidine (NCL812) and robenidine (NCL) analogs (NCL004, NCL020, NCL023, NCL024, NCL062, NCL094, NCL097, NCL110, NCL113, NCL114, NCL115, NCL135, NCL139, NCL180, NCL181, NCL195, NCL219, NCL220, NCL228, NCL247, NCL250, NCL259, NCL260, NCL263, NCL265, NCL269, NCL274) by standard broth microdilution method (CLSI) in RPMI 1640. Various concentrations (ranging from high to low) of the selected compounds were prepared in RPMI 1640 medium by double dilution in 96-well microtitre plates. Each well contained an inoculum of approximately 2×10^3 cells/mL. The wells without addition of drugs served as negative (no inoculum) and positive (inoculum only) growth controls. Microtitre plates were incubated at 35° C. for 24-48 hours. […] Antifungal MICs were determined for each isolate in duplicate; if the values obtained were different, the MIC test was repeated a third time.

[2] = system: Cryptococcus neoformans; experiment: CLSI broth microdilution MIC (Example 4)
Method: as §1

[3] = system: Candida albicans ATCC14053; experiment: Broth micro-dilution screen at 16 μg/mL and MIC (Example 9); conditions: for Screen at 16 μg/mL: single concentration 16 μg/mL, Growth or No growth of C. albicans ATCC14053; for MIC: C. albicans ATCC14053, test range 0.25-64 μg/mL, duplicate
Method: The antifungal activity of 201 NCL analogs against Candida albicans ATCC14053 in vitro was investigated. A broth micro-dilution method was used, according to CLSI guidelines as described. NCL analogs were dissolved in DMSO and originally screened at a single concentration of 16 μg/mL.

Structure (SMILES)	MIC at 24-48 hours ([1]; Candida albicans ATCC 90028)	MIC at 24-48 hours ([1]; Candida albicans SA3)	MIC at 24-48 hours ([2]; Cryptococcus neoformans SA1)	MIC at 24-48 hours ([2]; Cryptococcus neoformans SA2)	Screen at 16 μg/mL [3]	MIC [3]
COc1cc(Br)c(C=NNC(=N)NN=Cc2cc(OC)c(OC)cc2Br)cc1OC.Cl [NCL135]	>32 µg/mL	>32 µg/mL	>32 µg/mL	>32 µg/mL	Growth	–
Clc1ccc(/C=N/CC/N=C/c2ccc(Cl)cc2)cc1 [NCL250]	>32 µg/mL	>32 µg/mL	>32 µg/mL	>32 µg/mL	Growth	–
Cl.N=C(N)N/N=C/c1ccc(C(F)(F)F)cc1F [NCL263]	>32 µg/mL	>32 µg/mL	>32 µg/mL	>32 µg/mL	Growth	–
CCCCCCNC(=O)N(N=Cc1ccc(Cl)cc1)C(N)=NN=Cc1ccc(Cl)cc1 [NCL228]	>32 µg/mL	>32 µg/mL	>32 µg/mL	>32 µg/mL	No growth	0.5 µg/mL and 1 µg/mL
OCC(=NNc1cc(NN=C(CO)c2ccc(Cl)cc2)ncn1)c1ccc(Cl)cc1 [NCL180]	>32 µg/mL	>32 µg/mL	>32 µg/mL	>32 µg/mL	Growth	–
Cl.N=C(NN=Cc1ccccc1Cl)NN=Cc1ccccc1Cl [NCL020]	>32 µg/mL	>32 µg/mL	>32 µg/mL	>32 µg/mL	Growth	–
Cl.N=C(NN=Cc1cnc2ccccc2c1)NN=Cc1cnc2ccccc2c1 [NCL139]	>32 µg/mL	>32 µg/mL	>32 µg/mL	>32 µg/mL	No growth	<0.5 µg/mL
Clc1ccc(C=NNc2cc(NN=Cc3ccc(Cl)cc3)ncn2)cc1 [NCL181]	>32 µg/mL	>32 µg/mL	>32 µg/mL	>32 µg/mL	Growth	–
Cl.N=C(NN=Cc1ccc([N+](=O)[O-])cc1)NN=Cc1ccc([N+](=O)[O-])cc1 [NCL110]	>32 µg/mL	>32 µg/mL	>32 µg/mL	>32 µg/mL	Growth	–
Cl.N=C(NN=Cc1cc(Cl)cc(Cl)c1)NN=Cc1cc(Cl)cc(Cl)c1 [NCL114]	>32 µg/mL	>32 µg/mL	>32 µg/mL	>32 µg/mL	Growth	–
Clc1ccc(CNCCNCc2ccc(Cl)cc2)cc1 [NCL260]	>32 µg/mL	>32 µg/mL	>32 µg/mL	>32 µg/mL	Growth	–
Nc1nc(N/N=C/c2cc(O)c(O)c(O)c2)cc(N/N=C/c2cc(O)c(O)c(O)c2)n1 [NCL247]	>32 µg/mL	>32 µg/mL	>32 µg/mL	>32 µg/mL	No growth	2 µg/mL and 4 µg/mL
Cl.N=C(NN=CC1CCCCC1)NN=CC1CCCCC1 [NCL094]	>32 µg/mL	>32 µg/mL	>32 µg/mL	>32 µg/mL	Growth	–
CC(=NNC(=N)N)c1c[nH]c2ccccc12 [NCL269]	>32 µg/mL	>32 µg/mL	>32 µg/mL	>32 µg/mL	Growth	–
Nc1nc(NN=Cc2ccc(C(F)(F)F)cc2)cc(NN=Cc2ccc(C(F)(F)F)cc2)n1 [NCL221]	–	–	–	–	Growth	–
Cl.N=C(NN=Cc1ccc(Br)cc1)NN=Cc1ccc(Br)cc1 [NCL134]	–	–	–	–	No growth	<1 µg/mL
Cl.N=C(N)NN=Cc1ccccc1Cl [NCL015]	–	–	–	–	Growth	–
CC(=NNC(=N)NN=C(C)c1ccc(Cl)cc1F)c1ccc(Cl)cc1F.Cl [NCL215]	–	–	–	–	Growth	–

Structure (SMILES)	MIC at 24-48 hours ([1]; Candida albicans ATCC 90028)	MIC at 24-48 hours ([1]; Candida albicans SA3)	MIC at 24-48 hours ([2]; Cryptococcus neoformans SA1)	MIC at 24-48 hours ([2]; Cryptococcus neoformans SA2)	Screen at 16 μg/mL [3]	MIC [3]
Cl.N#Cc1cccc(C=NNC(=N)N)c1 [NCL033]	–	–	–	–	Growth	–
Cl.N=C(NN=Cc1ccc(SC(F)(F)F)cc1)NN=Cc1ccc(SC(F)(F)F)cc1 [NCL166]	–	–	–	–	Growth	–
Cl.N=C(NN=Cc1ccccc1-c1ccccc1)NN=Cc1ccccc1-c1ccccc1 [NCL116]	–	–	–	–	Growth	–
CCCCC(=NNC(=N)NN=C(CCCC)c1ccc(Cl)cc1)c1ccc(Cl)cc1.Cl [NCL154]	–	–	–	–	Growth	–
Cl.N=C(NN=Cc1cc(O)c(O)cc1O)NN=Cc1cc(O)c(O)cc1O [NCL104]	–	–	–	–	Growth	–
NC(=NN=Cc1ccc(Cl)cc1)N(N=Cc1ccc(Cl)cc1)C(=O)NCc1ccco1 [NCL229]	–	–	–	–	Growth	–
Nc1nc(N/N=C/c2ccc(F)c(F)c2)cc(N/N=C/c2ccc(F)c(F)c2)n1 [NCL222]	–	–	–	–	Growth	–
Cl.N#Cc1cccc(C=NNC(=N)NN=Cc2cccc(C#N)c2)c1 [NCL026]	–	–	–	–	Growth	–
Nc1nc(NN=Cc2ccc(Cl)nc2)cc(NN=Cc2ccc(Cl)nc2)n1 [NCL238]	–	–	–	–	Growth	–
CC(=NNc1cc(NN=C(C)c2ccc(Cl)cc2)nc(N)n1)c1ccc(Cl)cc1 [NCL204]	–	–	–	–	Growth	–
Nc1nc(NN=Cc2ccccc2Cl)cc(NN=Cc2ccccc2Cl)n1 [NCL205]	–	–	–	–	Growth	–
Cl.N=C(N)NN=Cc1ccc2ccccc2c1 [NCL261]	–	–	–	–	Growth	–
Nc1nc(NN=Cc2cccc(O)c2)cc(NN=Cc2cccc(O)c2)n1 [NCL197]	–	–	–	–	Growth	–
Cl.N=C(NN=Cc1ccccc1C(F)(F)F)NN=Cc1ccccc1C(F)(F)F [NCL036]	–	–	–	–	Growth	–
Cl.N=C(NN=C1C(=O)Nc2ccccc21)NN=C1C(=O)Nc2ccccc21 [NCL163]	–	–	–	–	Growth	–
Nc1nc(NN=Cc2ccc(Br)cc2)cc(NN=Cc2ccc(Br)cc2)n1 [NCL193]	–	–	–	–	Growth	–
CC(C)(C)c1ccc(C=NNC(=N)N)cc1 [NCL232]	–	–	–	–	Growth	–
Cl.N=C(NN=Cc1cc(Br)co1)NN=Cc1cc(Br)co1 [NCL133]	–	–	–	–	Growth	–
